The values that follow come from patent US10207993B2 (priority 2014, dated 2019).

The subject of the assay is H37Rv. Briefly: microbe, parasite or virus in culture. The format is cell-based, M. tuberculosis. As to conditions: for inhibition at 0.5 µM: Mycobacterium tuberculosis, H37RV, THP-1, 90 h, read-out: H37Rv % Inhibition at 500 nM; for H37Rv % Inhibition at 500 nM: 0.5 µM.

`O=C(NC1CN(Cc2ccccc2)C1)C(O)(c1ccccc1)c1ccccc1` [Compound 1022, N-(1-Benzylazetidin-3-yl)-2-hydroxy-2,2-diphenylacetamide]: the inhibition at 0.5 µM is 75%.
On the same count and under the same terms, the figure for `O=C(NC1CCCN(Cc2ccccc2)C1)C(O)(c1ccccc1)c1ccccc1` (stereo in doubt) [Compound 1029, (R)-N-(1-Benzylpiperidin-3-yl)-2-hydroxy-2,2-diphenylacetamide] is 61%; for `C[N+]1(C)CCC[C@H](OC(=O)[C@H](O)c2ccccc2)C1` [Compound 1054, (S)-3-((R)-2-Hydroxy-2-phenylacetoxy)-1,1-dimethylpiperidin-1-ium] it is 74%; for `CN1CCC[C@@H](OC(=O)[C@H](O)c2ccccc2)C1` [Compound 1037, (R)-(R)-1-Methylpiperidin-3-yl 2-hydroxy-2-phenylacetate] it is 40%.
Same read-out and setting: to `CN1CCC[C@@H](OC(=O)[C@@H](O)c2ccccc2)C1` [Compound 1039] belongs 61%.
As to `O=C(NC1CCN(Cc2ccccc2)CC1)C(O)(c1ccccc1)c1ccccc1` [Compound 1021, N-(1-Benzylpiperidin-4-yl)-2-hydroxy-2,2-diphenylacetamide], the “H37Rv % Inhibition at 500 nM” value was determined as 74%.
`CN1CCC[C@H](OC(=O)[C@H](O)c2ccccc2)C1` [Compound 1038]: the inhibition at 0.5 µM was 56%.
For `CN1CCC[C@@H](NC(=O)[C@H](O)c2ccccc2)C1` [Compound 1044, (R)-2-Hydroxy-N-((R)-1-methylpiperidin-3-yl)-2-phenylacetamide], the inhibition at 0.5 µM amounted to 65%.
Regarding `O=C(NC1CCN(Cc2ccccc2)CC1)[C@@H](O)c1ccccc1` [Compound 1052, (S)-N-(1-Benzylpiperidin-4-yl)-2-hydroxy-2-phenylacetamide], the inhibition at 0.5 µM was 73%.
Consider `C[N+]1(C)CCC[C@@H](OC(=O)[C@H](O)c2ccccc2)C1` [Compound 1053, (R)-3-((R)-2-Hydroxy-2-phenylacetoxy)-1,1-dimethylpiperidin-1-ium], for which the inhibition at 0.5 µM was 78%.
With `O=C(NC1CCCNC1)C(O)(c1ccccc1)c1ccccc1` (centres unmarked) [Compound 1016, 2-Hydroxy-2,2-diphenyl-N-(piperidin-3-yl)acetamide], the inhibition at 0.5 µM came out at 65%.
Regarding `O=C(OC1CN(Cc2ccccc2)C1)[C@@H](O)c1ccccc1` [Compound 1048, (S)-1-Benzylazetidin-3-yl 2-hydroxy-2-phenylacetate], the inhibition at 0.5 µM was 79%.
For the compound `CC(O)(C(=O)N[C@@H]1CCCN(Cc2ccccc2)C1)c1ccccc1` (stereo partly drawn) [Compound 1036, N-((R)-1-Benzylpiperidin-3-yl)-2 hydroxy-2-phenylpropanamide], the inhibition at 0.5 µM was determined as 58%.
Turning to `CN1CCC(OC(=O)C(O)c2ccccc2)CC1` (stereo in doubt) [Compound 1047, (S)-1-Methylpiperidin-4-yl 2-hydroxy-2-phenylacetate], the “H37Rv % Inhibition at 500 nM” value is listed as 68%.
Consider `O=C(N[C@@H]1CCCN(Cc2ccccc2)C1)C(O)(c1ccccc1)c1ccccc1` [Compound 1028, (R)-N-(1-Benzylpiperidin-3-yl)-2-hydroxy-2,2-diphenylacetamide], for which the inhibition at 0.5 µM came out at 77%.
With `O=C(NC1CCNCC1)C(O)(c1ccccc1)c1ccccc1` [Compound 1030, 2-Hydroxy-2,2-diphenyl-N-(piperidin-4-yl)acetamide], the inhibition at 0.5 µM came to 52%.
Take `O=C(N[C@@H]1CCCN(Cc2ccccc2)C1)C(c1ccccc1)c1ccccc1` [Compound 1034, (R)-N-(1-Benzylpiperidin-3-yl)-2,2-diphenylacetamide]: the inhibition at 0.5 µM amounted to 64%.
Still for that read-out and setting: to `O=C(NC1CCN(Cc2ccccc2)CC1)[C@H](O)c1ccccc1` [Compound 1051, (R)-N-(1-Benzylpiperidin-4-yl)-2-hydroxy-2-phenylacetamide] belongs 59%; to `CO[C@H](C(=O)N1CCOC[C@@H]1C)c1ccccc1` [Compound 1077, (S)-2-Methoxy-1-((S)-3-methylmorpholino)-2-phenylethanone], 52%; to `CC(=O)O[C@@H](C(=O)O[C@H]1CCCN(C)C1)c1ccccc1` [Compound 1056], 78%.
Turning to `COC(C(=O)OC1CCCN(C)C1)c1ccccc1` (stereo in doubt) [Compound 1059, (S)-(R)-1-Methylpiperidin-3-yl 2-methoxy-2-phenylacetate], the inhibition at 0.5 µM was 74%.
Turning to `CN1CCCC(NC(=O)C(O)(c2ccccc2)c2ccccc2)C1` (stereo in doubt) [Compound 1032, (R)-2-Hydroxy-N-(1-methylpiperidin-3-yl)-2,2-diphenylacetamide], the “H37Rv % Inhibition at 500 nM” value was determined as 72%.
Consider `CN1CCC(NC(=O)[C@H](O)c2ccccc2)CC1` [Compound 1043, (R)-2-Hydroxy-N-(1-methylpiperidin-4-yl)-2-phenylacetamide], for which the inhibition at 0.5 µM is 72%.
As for `CN1CCC[C@H](OC(=O)[C@@H](O)c2ccccc2)C1` [Compound 1040, (S)-(S)-1-Methylpiperidin-3-yl 2-hydroxy-2-phenylacetate], the inhibition at 0.5 µM came to 79%.
For the compound `CO[C@@H](C(=O)N1CCOC[C@H]1C)c1ccccc1` [Compound 1075, (R)-2-Methoxy-1-((R)-3-methylmorpholino)-2-phenylethanone], the inhibition at 0.5 µM turned out to be 46%.
As to `CN1CCC(OC(=O)[C@H](O)c2ccccc2)CC1` [Compound 1041, (R)-1-Methylpiperidin-4-yl 2-hydroxy-2-phenylacetate], the inhibition at 0.5 µM was determined as 71%.
As for `CN1CCCC(NC(=O)C(O)(c2ccccc2)c2ccccc2)C1` (centres unmarked) [Compound 1020, 2-Hydroxy-N-(1-methylpiperidin-3-yl)-2,2-diphenylacetamide], the inhibition at 0.5 µM came out at 64%.
Regarding `CN1CC[C@H](OC(=O)[C@H](O)c2ccccc2)C1` [Compound 1058], the inhibition at 0.5 µM stood at 55%.
In the case of `C[N+]12CCC(CC1)C(OC(=O)C(O)(c1ccccc1)c1ccccc1)C2` (centres unmarked) [Compound 1008, 3-(2-Hydroxy-2,2-diphenylacetoxy)-1-methylquinuclidin-1-ium], the inhibition at 0.5 µM was 42%.
With `CN1CC[C@@H](OC(=O)[C@H](O)c2ccccc2)C1` [Compound 1057, (R)-(R)-1-Methylpyrrolidin-3-yl 2-hydroxy-2-phenylacetate], the inhibition at 0.5 µM came out at 76%.
The same measure, in the same setting: the figure for `O=C(NC1CCN(Cc2ccccc2)CC1)C(O)(c1ccccc1)c1ccccc1` [Compound 1017, N-(1-Benzylpiperidin-4-yl)-2-hydroxy-2,2-diphenylacetamide] is 75%.
For the compound `CN1CCCC(NC(=O)[C@H](O)c2ccccc2)C1` (stereo in doubt) [Compound 1045, (R)-2-Hydroxy-N-((S)-1-methylpiperidin-3-yl)-2-phenylacetamide], the “H37Rv % Inhibition at 500 nM” value stood at 66%.
With `COC(C(=O)O)c1ccccc1` (centres unmarked) [Compound 1060, 2-Methoxy-2-phenylacetic acid], the inhibition at 0.5 µM worked out at 78%.
The same measure, in the same setting: to `CN1CCC(NC(=O)[C@@H](O)c2ccccc2)CC1` [Compound 1042, (S)-2-Hydroxy-N-(1-methylpiperidin-4-yl)-2-phenylacetamide] belongs 73%.
In the case of `O=C(N[C@H]1CCCN(Cc2ccccc2)C1)C(O)c1ccccc1` (stereo partly drawn) [Compound 1035, N-((S)-1-Benzylpiperidin-3-yl)-2-hydroxy-2-phenylacetamide], the inhibition at 0.5 µM was 62%.
